For this data set, the target named is albumin (HSA) (Homo sapiens, UniProt P02768). Briefly: Albumin detection by ASQ fluorescence in PBS buffer. The following applies: [ASQ]=100 μM, λex=430 nm. The data set is classed as binding. How it is done:
FIG. 4A The fluorescence response of ASQ to HSA. FIG. 4B Linear plot of l/l0 at 542 nm versus HSA concentrations. l0 equals to the intensity of [HSA]=0 mg/L. FIG. 4C Selectivity study of ASQ towards albumin. l0 equals the intensity of the blank sample. [Biomolecules]=1 mg/mL. [ASQ]=100 μM, λex=430 nm.
Albumin protein is the substance carrier in blood with multiple polar or nonpolar binding sites. […] There is a very good linear relationship between the fluorescence intensity and albumin concentration (FIG. 4B).

Sequence of albumin (HSA) (P02768 25-609): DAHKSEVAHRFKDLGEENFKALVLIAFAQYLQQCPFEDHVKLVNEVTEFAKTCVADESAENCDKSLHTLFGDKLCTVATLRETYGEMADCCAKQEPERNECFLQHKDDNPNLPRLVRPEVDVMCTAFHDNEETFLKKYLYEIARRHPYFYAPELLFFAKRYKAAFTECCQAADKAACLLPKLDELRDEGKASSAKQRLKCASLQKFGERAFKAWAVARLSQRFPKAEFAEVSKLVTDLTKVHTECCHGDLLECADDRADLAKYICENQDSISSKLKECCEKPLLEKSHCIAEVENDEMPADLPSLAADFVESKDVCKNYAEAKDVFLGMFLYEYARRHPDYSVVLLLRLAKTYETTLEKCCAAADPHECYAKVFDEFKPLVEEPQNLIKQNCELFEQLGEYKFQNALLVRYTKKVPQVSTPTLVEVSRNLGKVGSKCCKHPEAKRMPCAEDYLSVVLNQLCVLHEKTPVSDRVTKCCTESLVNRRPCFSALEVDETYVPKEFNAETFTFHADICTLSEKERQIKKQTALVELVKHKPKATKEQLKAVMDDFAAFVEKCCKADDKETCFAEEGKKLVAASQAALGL

For `CN(C)c1ccc(C=Cc2nc3ccccc3[nH]c2=O)cc1` [ASQ], the “fluorescence emission response on addition of albumin” value (ASQ's PBS buffer solution) was “greatly enhanced”. Further, the “selectivity towards albumin versus other common biomolecules such as hemoglobin (emission turn-on)” value ([Biomolecules]=1 mg/mL) is reported as “good selectivity towards albumin”.

Values taken from patent publication US20220390426A1, “AIE PROBE AND APPLICATION THEREOF” (The Hong Kong University of Science and Technology, priority 2020, published 2022).
